Results reported in US20250101023A1, “HETEROARYL DERIVATIVE AND USES THEREOF” (IUCF-HYU (INDUSTRY-UNIVERSITY COOPERATION FOUNDATION …, priority 2022, published 2025).

Tests used:
Experiment in all cases: Kinome-wide profiling
Assay type in all cases: biochemical
Settings in all cases: read-out: % Residual Activity (mean)
[1] = target: LCK (Homo sapiens (Human), UniProt P06239)
[2] = target: YES/YES1 (Homo sapiens (Human), UniProt P07947)
[3] = target: EPHA5 (Homo sapiens (Human), UniProt P54756)
[4] = target: RSK4 (Homo sapiens (Human), UniProt Q9UK32)
[5] = target: EPHB4 (Homo sapiens (Human), UniProt P54760)
[6] = target: FLT4/VEGFR3 (Homo sapiens (Human), UniProt P35916)
[7] = target: CDK4/cyclin D1 (Homo sapiens (Human), UniProt P11802)
[8] = target: ERN1/IRE1 (Homo sapiens (Human), UniProt O75460)
[9] = target: SGK2 (Homo sapiens (Human), UniProt Q9HBY8)
[10] = target: MEK5 (Homo sapiens (Human), UniProt Q13163)
[11] = target: TYK2 (Homo sapiens (Human), UniProt P29597)
[12] = target: PAK5 (Homo sapiens (Human), UniProt Q9P286)
[13] = target: CAMK2b (Homo sapiens (Human), UniProt Q13554)
[14] = target: TYK1/LTK (Homo sapiens (Human), UniProt P29376)
[15] = target: PLK3 (Homo sapiens (Human), UniProt Q9H4B4)
[16] = target: IKKa/CHUK (Homo sapiens (Human), UniProt O15111)
[17] = target: IRR/INSRR (Homo sapiens (Human), UniProt P14616)
[18] = target: PHKg2 (Homo sapiens (Human), UniProt P15735)
[19] = target: FGR (Homo sapiens (Human), UniProt P09769)
[20] = target: AXL (Homo sapiens (Human), UniProt P30530)
[21] = target: PASK (Homo sapiens (Human), UniProt Q96RG2)
[22] = target: EPHA7 (Homo sapiens (Human), UniProt Q15375)
[23] = target: FER (Homo sapiens (Human), UniProt P16591)
[24] = target: EPHA8 (Homo sapiens (Human), UniProt P29322)
[25] = target: ULK3 (Homo sapiens (Human), UniProt Q6PHR2)
[26] = target: SNRK (Homo sapiens (Human), UniProt Q9NRH2)
[27] = target: SIK2 (Homo sapiens (Human), UniProt Q9H0K1)
[28] = target: LOK/STK10 (Homo sapiens (Human), UniProt O94804)
[29] = target: TXK (Homo sapiens (Human), UniProt P42681)
[30] = target: c-Src (Homo sapiens (Human), UniProt P12931)
[31] = target: ABL2/ARG (Homo sapiens (Human), UniProt P42684)
[32] = target: ABL1 (Homo sapiens (Human), UniProt P00519)
[33] = target: NEK3 (Homo sapiens (Human), UniProt P51956)
[34] = target: GRK6 (Homo sapiens (Human), UniProt P43250)
[35] = target: PKCd (Homo sapiens (Human), UniProt Q05655)
[36] = target: MAPKAPK5/PRAK (Homo sapiens (Human), UniProt Q8IW41)
[37] = target: PIM3 (Homo sapiens (Human), UniProt Q86V86)

Sequence of AXL (P30530 26-894): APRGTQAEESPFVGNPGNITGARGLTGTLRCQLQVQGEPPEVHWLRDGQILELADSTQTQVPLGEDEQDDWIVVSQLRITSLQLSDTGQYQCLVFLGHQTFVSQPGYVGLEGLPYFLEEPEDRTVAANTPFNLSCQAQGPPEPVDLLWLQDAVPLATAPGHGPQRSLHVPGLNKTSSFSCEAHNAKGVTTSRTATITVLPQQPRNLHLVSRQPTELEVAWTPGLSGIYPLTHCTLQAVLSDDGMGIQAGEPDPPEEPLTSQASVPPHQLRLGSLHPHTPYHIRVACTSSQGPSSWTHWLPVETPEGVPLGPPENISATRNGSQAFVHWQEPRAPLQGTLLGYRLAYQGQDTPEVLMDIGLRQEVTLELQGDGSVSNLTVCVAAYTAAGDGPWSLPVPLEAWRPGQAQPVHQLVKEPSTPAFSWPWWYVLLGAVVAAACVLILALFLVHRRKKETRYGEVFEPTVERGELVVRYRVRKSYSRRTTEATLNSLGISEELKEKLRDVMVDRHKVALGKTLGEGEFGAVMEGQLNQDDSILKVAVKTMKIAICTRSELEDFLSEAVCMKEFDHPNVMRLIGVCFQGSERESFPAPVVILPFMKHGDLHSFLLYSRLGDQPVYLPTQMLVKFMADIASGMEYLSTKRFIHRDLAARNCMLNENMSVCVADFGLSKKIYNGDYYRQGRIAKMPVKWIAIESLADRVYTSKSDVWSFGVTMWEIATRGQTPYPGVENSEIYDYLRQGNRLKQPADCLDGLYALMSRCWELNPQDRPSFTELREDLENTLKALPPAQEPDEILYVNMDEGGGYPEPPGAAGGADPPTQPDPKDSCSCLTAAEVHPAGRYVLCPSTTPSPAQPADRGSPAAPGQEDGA
Sequence of ABL2/ARG (P42684 whole entry): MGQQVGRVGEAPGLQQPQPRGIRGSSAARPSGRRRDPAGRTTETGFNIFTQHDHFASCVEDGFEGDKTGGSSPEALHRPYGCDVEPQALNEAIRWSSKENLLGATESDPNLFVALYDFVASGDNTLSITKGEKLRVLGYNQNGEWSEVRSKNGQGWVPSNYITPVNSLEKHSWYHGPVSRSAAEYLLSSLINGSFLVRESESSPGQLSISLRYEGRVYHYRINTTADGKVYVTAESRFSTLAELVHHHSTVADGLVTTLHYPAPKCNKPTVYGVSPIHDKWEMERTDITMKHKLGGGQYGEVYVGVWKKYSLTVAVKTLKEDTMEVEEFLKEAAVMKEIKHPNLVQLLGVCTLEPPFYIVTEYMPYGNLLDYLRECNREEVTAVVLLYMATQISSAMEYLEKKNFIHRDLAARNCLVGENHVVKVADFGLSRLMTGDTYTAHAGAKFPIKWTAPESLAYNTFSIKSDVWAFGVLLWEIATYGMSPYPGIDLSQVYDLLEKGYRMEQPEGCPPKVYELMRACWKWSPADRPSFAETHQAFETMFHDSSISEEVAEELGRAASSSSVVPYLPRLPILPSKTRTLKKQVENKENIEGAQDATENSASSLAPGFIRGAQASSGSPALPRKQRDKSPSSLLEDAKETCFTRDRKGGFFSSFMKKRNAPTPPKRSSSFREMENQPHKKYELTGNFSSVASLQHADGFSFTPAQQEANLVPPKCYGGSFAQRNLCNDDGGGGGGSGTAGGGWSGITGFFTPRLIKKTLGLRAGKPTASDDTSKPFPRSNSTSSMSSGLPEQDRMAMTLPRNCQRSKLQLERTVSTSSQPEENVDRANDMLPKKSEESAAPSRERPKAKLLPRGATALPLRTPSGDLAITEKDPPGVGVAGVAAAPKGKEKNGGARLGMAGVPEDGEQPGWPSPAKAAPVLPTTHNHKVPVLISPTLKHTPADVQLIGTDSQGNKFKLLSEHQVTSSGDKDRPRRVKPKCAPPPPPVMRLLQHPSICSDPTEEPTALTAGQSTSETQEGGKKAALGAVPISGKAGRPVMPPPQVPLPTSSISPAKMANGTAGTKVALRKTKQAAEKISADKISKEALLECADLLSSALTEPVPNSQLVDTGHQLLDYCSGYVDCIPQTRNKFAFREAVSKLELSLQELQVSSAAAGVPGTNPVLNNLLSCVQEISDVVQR
Sequence of EPHA7 (Q15375 28-998): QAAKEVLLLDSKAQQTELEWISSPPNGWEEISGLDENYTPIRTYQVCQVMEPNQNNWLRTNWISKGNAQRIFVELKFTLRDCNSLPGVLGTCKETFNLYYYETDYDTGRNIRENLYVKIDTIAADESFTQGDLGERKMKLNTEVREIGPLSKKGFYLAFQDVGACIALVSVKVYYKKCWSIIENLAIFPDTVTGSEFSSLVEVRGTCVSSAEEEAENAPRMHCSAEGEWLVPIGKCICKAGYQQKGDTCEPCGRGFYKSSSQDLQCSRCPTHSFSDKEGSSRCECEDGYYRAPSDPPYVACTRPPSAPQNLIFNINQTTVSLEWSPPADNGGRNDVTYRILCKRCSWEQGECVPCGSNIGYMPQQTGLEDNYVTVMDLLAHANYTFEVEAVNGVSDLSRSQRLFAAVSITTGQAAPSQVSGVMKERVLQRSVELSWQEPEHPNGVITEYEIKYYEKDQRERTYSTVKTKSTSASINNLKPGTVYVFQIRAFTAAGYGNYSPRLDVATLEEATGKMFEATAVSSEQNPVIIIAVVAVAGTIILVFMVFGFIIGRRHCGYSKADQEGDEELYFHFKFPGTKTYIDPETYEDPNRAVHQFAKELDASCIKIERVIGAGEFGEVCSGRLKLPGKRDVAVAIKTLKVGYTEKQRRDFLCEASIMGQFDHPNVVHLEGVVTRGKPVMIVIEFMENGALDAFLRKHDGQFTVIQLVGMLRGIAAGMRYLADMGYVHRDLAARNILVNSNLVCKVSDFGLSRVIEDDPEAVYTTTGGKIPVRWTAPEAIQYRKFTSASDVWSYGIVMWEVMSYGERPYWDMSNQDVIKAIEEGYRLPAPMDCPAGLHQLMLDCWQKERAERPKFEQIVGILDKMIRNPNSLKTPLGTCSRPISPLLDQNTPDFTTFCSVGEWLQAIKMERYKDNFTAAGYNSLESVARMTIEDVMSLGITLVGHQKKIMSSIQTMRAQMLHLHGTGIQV
Sequence of PHKg2 (P15735 whole entry): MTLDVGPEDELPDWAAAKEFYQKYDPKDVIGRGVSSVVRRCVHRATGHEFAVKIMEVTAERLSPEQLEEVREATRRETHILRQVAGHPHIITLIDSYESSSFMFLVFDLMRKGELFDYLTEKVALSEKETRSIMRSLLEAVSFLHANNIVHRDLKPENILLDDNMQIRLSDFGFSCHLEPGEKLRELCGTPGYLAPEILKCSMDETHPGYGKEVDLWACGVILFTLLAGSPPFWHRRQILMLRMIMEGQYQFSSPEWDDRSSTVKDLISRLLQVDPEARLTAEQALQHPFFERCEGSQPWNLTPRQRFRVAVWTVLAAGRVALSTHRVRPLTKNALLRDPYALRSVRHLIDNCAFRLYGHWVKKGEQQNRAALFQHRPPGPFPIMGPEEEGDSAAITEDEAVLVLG
Sequence of TXK (P42681 whole entry): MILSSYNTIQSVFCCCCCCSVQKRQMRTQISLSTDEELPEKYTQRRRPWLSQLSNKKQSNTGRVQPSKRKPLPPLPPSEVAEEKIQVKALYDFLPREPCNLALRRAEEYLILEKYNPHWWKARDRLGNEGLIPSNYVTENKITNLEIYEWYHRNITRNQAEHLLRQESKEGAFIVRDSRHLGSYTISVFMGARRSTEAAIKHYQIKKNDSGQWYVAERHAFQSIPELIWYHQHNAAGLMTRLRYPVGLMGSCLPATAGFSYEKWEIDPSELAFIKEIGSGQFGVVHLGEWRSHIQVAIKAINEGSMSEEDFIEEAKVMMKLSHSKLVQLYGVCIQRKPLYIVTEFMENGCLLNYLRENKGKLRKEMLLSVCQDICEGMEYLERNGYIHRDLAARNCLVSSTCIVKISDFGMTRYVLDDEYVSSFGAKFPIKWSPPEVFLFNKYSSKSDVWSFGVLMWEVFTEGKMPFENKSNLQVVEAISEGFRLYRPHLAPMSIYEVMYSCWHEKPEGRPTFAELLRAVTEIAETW
Sequence of EPHB4 (P54760 16-987): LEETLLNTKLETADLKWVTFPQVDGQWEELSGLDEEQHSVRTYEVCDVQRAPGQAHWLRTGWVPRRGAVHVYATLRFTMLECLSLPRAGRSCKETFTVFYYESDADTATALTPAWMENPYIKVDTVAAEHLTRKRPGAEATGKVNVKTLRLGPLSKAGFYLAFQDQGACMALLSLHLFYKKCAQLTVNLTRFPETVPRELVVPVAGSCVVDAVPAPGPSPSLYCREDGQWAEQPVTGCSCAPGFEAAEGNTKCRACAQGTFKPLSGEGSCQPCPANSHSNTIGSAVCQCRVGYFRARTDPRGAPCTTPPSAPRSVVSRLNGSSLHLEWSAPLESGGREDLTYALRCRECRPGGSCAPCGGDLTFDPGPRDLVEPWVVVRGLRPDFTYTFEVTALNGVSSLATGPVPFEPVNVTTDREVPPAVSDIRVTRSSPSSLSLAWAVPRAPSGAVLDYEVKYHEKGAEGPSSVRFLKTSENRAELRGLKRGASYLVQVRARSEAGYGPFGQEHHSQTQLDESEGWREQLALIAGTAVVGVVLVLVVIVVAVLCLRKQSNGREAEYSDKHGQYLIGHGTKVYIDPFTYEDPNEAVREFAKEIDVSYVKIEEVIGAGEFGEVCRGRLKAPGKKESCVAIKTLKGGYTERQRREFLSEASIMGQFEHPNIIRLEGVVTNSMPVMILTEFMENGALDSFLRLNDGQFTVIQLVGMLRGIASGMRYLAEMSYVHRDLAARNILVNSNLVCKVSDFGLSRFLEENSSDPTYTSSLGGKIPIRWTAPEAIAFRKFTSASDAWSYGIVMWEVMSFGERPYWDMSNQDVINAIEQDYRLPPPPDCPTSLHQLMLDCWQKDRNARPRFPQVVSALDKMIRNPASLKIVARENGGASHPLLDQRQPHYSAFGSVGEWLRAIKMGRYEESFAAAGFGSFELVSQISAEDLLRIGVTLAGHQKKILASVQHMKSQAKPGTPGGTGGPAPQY

Question: What does the source list for CCn1cnc2c(NCc3ccc(-c4ccccn4)nc3)nc(-c3ccc(N)nc3)nc21 [Example 53, N-([2,2′-bipyridin]-5-ylmethyl)-2-(6-aminopyridin-3-yl)-9-ethyl-9H-purin-6-amine]?
Answer: remaining activity at 10 µM [1]: 83.6%; remaining activity at 10 µM [2]: 20.6%; remaining activity at 10 µM [3]: 5.86%; remaining activity at 10 µM [4]: 54.2%; remaining activity at 10 µM [5]: 23.2%; remaining activity at 10 µM [6]: 10%; remaining activity at 10 µM [7]: 33.5%; remaining activity at 10 µM [8]: 50.8%; remaining activity at 10 µM [9]: 84.7%; remaining activity at 10 µM [10]: 84.1%; remaining activity at 10 µM [11]: 90.7%; remaining activity at 10 µM [12]: 7.55%; remaining activity at 10 µM [13]: 65.2%; remaining activity at 10 µM [14]: 73.6%; remaining activity at 10 µM [15]: 94.4%; remaining activity at 10 µM [16]: 71.5%; remaining activity at 10 µM [17]: 31.1%; remaining activity at 10 µM [18]: 56.9%; remaining activity at 10 µM [19]: 54.6%; remaining activity at 10 µM [20]: 44.2%; remaining activity at 10 µM [21]: 96.3%; remaining activity at 10 µM [22]: 31.3%; remaining activity at 10 µM [23]: 52.3%; remaining activity at 10 µM [24]: 94%; remaining activity at 10 µM [25]: 91.8%; remaining activity at 10 µM [26]: 93%; remaining activity at 10 µM [27]: 35.9%; remaining activity at 10 µM [28]: 41.4%; remaining activity at 10 µM [29]: 34.9%; remaining activity at 10 µM [30]: 60.1%; remaining activity at 10 µM [31]: 56.1%; remaining activity at 10 µM [32]: 61.2%; remaining activity at 10 µM [33]: 86.6%; remaining activity at 10 µM [34]: 80.6%; remaining activity at 10 µM [35]: 95.2%; remaining activity at 10 µM [36]: 103%; remaining activity at 10 µM [37]: 86.7%
